Results on five molecules are retold here after publication PMC3389279 (Bioorganic & medicinal chemistry letters, 2012).

The target in series [1] is T1, NKCC1 (Homo sapiens, UniProt P55011).
T1 sequence (P55011 1-1212): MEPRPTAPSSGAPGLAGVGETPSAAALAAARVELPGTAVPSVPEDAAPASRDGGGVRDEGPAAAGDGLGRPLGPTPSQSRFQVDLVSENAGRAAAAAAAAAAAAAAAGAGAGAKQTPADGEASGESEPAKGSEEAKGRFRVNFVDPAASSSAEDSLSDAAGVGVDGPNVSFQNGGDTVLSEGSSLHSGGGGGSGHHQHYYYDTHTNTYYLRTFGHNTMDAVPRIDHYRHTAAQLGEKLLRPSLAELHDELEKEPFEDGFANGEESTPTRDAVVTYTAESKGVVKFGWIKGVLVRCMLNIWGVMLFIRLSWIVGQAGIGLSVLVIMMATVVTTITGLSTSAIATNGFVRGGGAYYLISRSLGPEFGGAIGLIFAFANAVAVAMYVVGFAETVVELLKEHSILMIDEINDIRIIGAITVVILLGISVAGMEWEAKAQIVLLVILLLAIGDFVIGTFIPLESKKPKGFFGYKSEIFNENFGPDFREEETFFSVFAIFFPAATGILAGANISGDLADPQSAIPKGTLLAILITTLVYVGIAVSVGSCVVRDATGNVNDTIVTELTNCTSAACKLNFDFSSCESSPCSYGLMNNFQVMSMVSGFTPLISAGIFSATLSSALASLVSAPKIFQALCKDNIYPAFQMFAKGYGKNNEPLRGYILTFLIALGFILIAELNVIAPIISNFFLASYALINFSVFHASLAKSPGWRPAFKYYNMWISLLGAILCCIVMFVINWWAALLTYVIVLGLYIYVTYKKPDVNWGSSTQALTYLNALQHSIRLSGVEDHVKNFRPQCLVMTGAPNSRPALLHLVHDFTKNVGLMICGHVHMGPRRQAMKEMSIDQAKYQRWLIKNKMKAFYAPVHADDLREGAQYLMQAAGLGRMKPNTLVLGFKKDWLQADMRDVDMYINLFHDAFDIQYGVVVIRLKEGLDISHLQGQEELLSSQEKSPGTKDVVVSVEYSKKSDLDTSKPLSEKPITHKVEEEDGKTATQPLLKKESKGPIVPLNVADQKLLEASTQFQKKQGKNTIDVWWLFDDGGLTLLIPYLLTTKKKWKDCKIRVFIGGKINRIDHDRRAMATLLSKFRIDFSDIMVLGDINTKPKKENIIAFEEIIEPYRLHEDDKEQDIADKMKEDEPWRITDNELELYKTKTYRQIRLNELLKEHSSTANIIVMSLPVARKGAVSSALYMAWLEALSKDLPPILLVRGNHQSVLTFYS
Nature of the series: 86Rb uptake assay, NKCC1 function. Type of series: cell-based. The note with it: concentrations up to 100 µM.

The nature of series [2]: Intrinsic clearance in human liver microsomes. Type of series: in vitro ADME.
The test system of series [3] is 68 GPCRs, ion channels and transporters. Nature of the series: Lead Profiling screen at Ricerca, radioligand binding assays.
For series [4], the target named is T1, NKCC1. The note with it: KCC2 versus NKCC1; cited from earlier work.
The target of series [5] is T2, KCC2 (Homo sapiens, UniProt Q9H2X9).
T2 sequence (Q9H2X9 1-1139): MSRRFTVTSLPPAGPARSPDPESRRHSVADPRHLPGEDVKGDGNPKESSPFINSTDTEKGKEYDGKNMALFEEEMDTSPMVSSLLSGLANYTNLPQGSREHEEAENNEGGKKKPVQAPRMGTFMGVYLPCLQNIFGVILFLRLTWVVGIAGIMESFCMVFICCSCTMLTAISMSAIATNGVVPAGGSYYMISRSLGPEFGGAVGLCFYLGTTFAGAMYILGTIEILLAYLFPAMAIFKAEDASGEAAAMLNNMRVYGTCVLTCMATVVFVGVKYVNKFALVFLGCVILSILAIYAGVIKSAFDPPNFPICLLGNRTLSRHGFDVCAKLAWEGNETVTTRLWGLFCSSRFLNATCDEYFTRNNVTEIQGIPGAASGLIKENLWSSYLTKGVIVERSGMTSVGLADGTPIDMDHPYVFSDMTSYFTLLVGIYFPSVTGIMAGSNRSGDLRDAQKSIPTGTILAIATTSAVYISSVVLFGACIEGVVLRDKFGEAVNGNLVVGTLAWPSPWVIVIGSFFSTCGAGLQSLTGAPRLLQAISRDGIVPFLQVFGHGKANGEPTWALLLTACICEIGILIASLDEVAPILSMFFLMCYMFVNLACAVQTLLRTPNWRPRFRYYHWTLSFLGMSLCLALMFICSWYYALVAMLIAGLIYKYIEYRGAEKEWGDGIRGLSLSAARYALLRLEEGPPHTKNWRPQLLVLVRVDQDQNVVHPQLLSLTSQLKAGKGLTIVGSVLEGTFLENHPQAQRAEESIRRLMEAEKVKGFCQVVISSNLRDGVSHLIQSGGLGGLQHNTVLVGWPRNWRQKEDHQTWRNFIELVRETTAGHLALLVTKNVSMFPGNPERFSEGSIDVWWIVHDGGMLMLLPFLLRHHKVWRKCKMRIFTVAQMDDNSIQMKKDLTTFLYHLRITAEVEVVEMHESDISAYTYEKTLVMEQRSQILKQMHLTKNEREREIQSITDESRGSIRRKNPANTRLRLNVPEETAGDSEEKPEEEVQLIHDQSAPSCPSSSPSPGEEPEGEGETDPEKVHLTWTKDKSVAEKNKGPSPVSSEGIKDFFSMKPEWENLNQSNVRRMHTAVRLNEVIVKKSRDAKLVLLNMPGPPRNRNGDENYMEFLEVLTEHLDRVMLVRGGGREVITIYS
The note with it: intrathecal injection; cited from earlier work.

Series [6] is described as follows: Intrinsic clearance in rat liver microsomes. It is filed as in vitro ADME. In general terms: Liver microsomes are vesicles of endoplasmic reticulum, rich in cytochrome P450 enzymes.
Series [7] concerns the target T2, KCC2. Nature of the series: 86Rb uptake assay in KCC2-overexpressing HEK293 cells. It is filed as cell-based. The note with it: first generation libraries, 2-pyridyl-based analogs.

Entries after “also recorded” stand apart in the source; their conditions may differ. Bounds are passed on as bounds.

As to `Cc1csc(N(C(=O)CSc2ccc(-c3ccccc3)nn2)C2CC2)n1` [11k], the “inhibition of NKCC1 function (in words)” value at NKCC1 [1] is listed as “weak, partial inhibition; also recorded: weak partial inhibition”. The “Intrinsic clearance (in words)” value in series [2] is recorded as “rapidly cleared in vitro”. The “inhibition in ancillary pharmacology panel” value in series [3] (10 µM, 68 targets) is on record as at most 50%. For the same molecule, the “activity in ancillary pharmacology panel (in words)” value in series [3] (panel of 68 GPCRs, ion channels and transporters) was “no activity”.

For the molecule `Cc1csc(NC(=O)CSc2ccc(-c3ccccc3)nn2)n1` [compound 1], the “selectivity versus NKCC1” value on NKCC1 [4] is listed as above 100 fold.

As usually defined, the CLint scaled is a measure of how fast metabolising enzymes remove a compound, apart from limits set by blood flow. Low readings indicate slow turnover, high ones rapid turnover. `Cc1csc(N(C)C(=O)CSc2ccc(-c3ccccc3)nn2)n1` [compound 2]: the “inhibition of NKCC1 function (in words)” value against NKCC1 [1] was “weak, partial inhibition; also recorded: weak partial inhibition”. In addition, the CLint scaled amounted to 229 mL/min/kg in series [2] and 294 mL/min/kg in series [6]. Moreover, the “block of KCC2 in spinal cord (in words)” value at KCC2 [5] was “used successfully to block KCC2 in spinal cord”. Further, the “selectivity versus NKCC1” value on NKCC1 [4] is given as above 100 fold.

With `Cc1csc(NC(=O)CSc2ccc(-c3ccccc3)cn2)n1` [compound 9], at KCC2 [7], the “KCC2 antagonist activity (in words)” value is recorded as “weak”.

`Cc1csc(N(C)C(=O)CSc2ccc(-c3ccccc3)cn2)n1` [compound 10]: at KCC2 [7], the “KCC2 antagonist activity (in words)” value is “weak”.
